Experimental data from patent publication US10532084B2, “Chondrocyte extracellular matrix-derived peptide” (EYEBIO KOREA, priority 2016, dated 2020).
Entries after “also recorded” stand apart in the source; their conditions may differ.

Experiments:
corneal surface = experiment: Corneal surface irregularity (smoothness) score, dry eye model; type: in vivo, NOD.B10.H2b mice; conditions: day 10 after removal of dry stress; grades 0-5; normal 0.33±0.58, DS 10D 4.33±0.58
Protocol: (§1) NOD.B10.H2^b mice were purchased from Jackson Laboratory (Bar Harbor, Me., USA). Animal experiments were carried out in accordance with the guidelines approved by the University of Inje (No.; 2014-029) and ARVO regarding animal use for eye and vision research. NOD.B10.H2^b mice at 12-16 weeks old were exposed to 40-50% ambient humidity and ventilation using a fan for 18 hours a day as dry stress and subcutaneously injected with 0.5 mg/0.2 mL muscarinic receptor blocker. In addition, scopolamine hydrobromide (Sigma-Aldrich, St. Louis, Mo.) was injected alternately to the […] hips four times a day for 10 days at 9 am, […].
(§2) After 10 days of ocular dry stress, the scopolamine injection was stopped, and switched to a normal humidity and temperature environment and the dry stress was removed, 10 mg/ml Hyp-[…] and collagen were dissolved in normal saline to administer 5 μL each 5 times a day for 10 days, and normal saline and 0.1% HA were administered to the eyeball 5 times a day for 10 days. Three mice were used in each of the six experimental groups using both eyes of the mice and all experiments were repeated.
As for the curvature of the corneal surface, a reflected image of the white ring was obtained from an optical fiber ring illumination of a stereoscopic microscope (SZX7; Olympus) after anesthetizing the animal. Corneal smoothness was assessed by grading the irregularity of corneal epithelial cells reflected in the white ring of the digital image. Corneal irregularity severity score was calculated by dividing the reflection ring into quadrants and grading into 5 grades according to degree of irregularity. No irregularity is grade 0, irregularity of ¼ (quarter) is grade 1; irregularity of 2/4 (two-quarters) is grade 2; irregularity of ¾ (three-quarters) is grade 3; entire irregularity is grade 4; and […] and thus all the rings were confirmed.
The degree of corneal curvature in each experiment group was quantified to confirm the bendability of the corneal surface.

corneal epithelial cell = experiment: Corneal epithelial cell detachment (H&E), dry eye model; type: in vivo, NOD.B10.H2b mice; conditions: 10 days of treatment after removal of dry stress; DS 10D 2.29±0.57
Protocol: as §1, §2

[1] = Tear amount by phenol red-impregnated cotton threads, dry eye model; type: in vivo, NOD.B10.H2b mice; conditions: 10 days of treatment after removal of dry stress; normal 0.22±0.01, DS 10D 0.03±0.01
Protocol: Tear production was measured by a method reported using phenol red-impregnated cotton threads (Zone-Quick, Oasis, Glendora, Calif.) (Villareal A L, Farley W, Pflugfelder S C. Effect of topical ophthalmic epinastine and olopatadine on tear volume in mice. Eye Contact Lens. 2006; 32 (6): 272-276.). […] The measured lachrymal fluid in the millimeter was compared with a standard curve expressed as a cotton thread which was soaked with the expected tear amount of mouse of basic solution ([…] of 0.9% salt and 5 mL of 5 N NaOH) for 20 seconds.
The degree of tear generation was measured by phenol red-impregnated cotton threads.

[2] = tested on: human vascular endothelial cells (HUVEC); experiment: Tubing assay (VEGF-induced tube formation); type: cell-based; conditions: 50 ng/ml recombinant human VEGF, 4 hours
Protocol: The antiangiogenic effect of hydroxy proline-GQDGLAGPK was confirmed by tubing assay using human vascular endothelial cells (HUVEC).
HUVEC cells were stained with calcein-AM and then dispensed on a Matrigel-coated 48-well plate, treated with collagen, CPI and CPII at concentrations together with 50 ng/ml of recombinant human VEGF, and after 4 hours of incubation at 37° C., tube formation was observed by fluorescence microscopy (Leica) and tube length was analyzed by Image lab software (Bio-Rad Laboratories).
Tubing assay using human vascular endothelial cells (HUVEC) was performed to confirm the anti-angiogenic effect of hydroxyl proline-GQDGLAGPK.

[3] = tested on: conjunctival goblet cells; experiment: Distribution of conjunctival goblet cells (PAS staining), dry eye model; type: in vivo, NOD.B10.H2b mice; conditions: 10 days of treatment after removal of dry stress; normal 14.38±0.44, DS 10D 6.02±0.29
Protocol: as §1, §2
The distribution of conjunctival goblet cells according to eye drop in dry eye mice was observed.

[4] = tested on: choroidal neovascularization (CNV); experiment: Laser-induced choroidal neovascularization (CNV), lesion size by retina-choroid flat-mount; type: in vivo, C57BL/6 mice; conditions: mouse, laser irradiation; 2 μg intraocular injection for 5 days
Protocol: C57BL/6 mice were purchased from Orient Bio and the animal experiments was carried out in accordance with the guidelines approved by the University of Inje (No, 2013-053) and ARVO regarding animal use for eye and vision studies. 6-week-old C57BL/6 mice were treated with diode green laser (532 nm, 150 mW, 0.1 sec, […], photocoagulator) to damage the retinal optic nerve area. […] The above experiment for each experiment group was performed using both eyes of five mice each. […]
The mouse was anesthetized and injected with 25 mg/ml of FITC-dextran in […] of retro-orbital. After 30 minutes, the mouse was euthanized and the eyeball was extracted and fixed with 10% formalin and then, the cornea and lens were removed and flat mounted on the cover glass. The neovasculature stained with FITC-dextran was observed by fluorescence microscopy (Leica) and the lesion size was measured by Image J program. […]

VEGF, ICAM and MCP-1 = experiment: Quantitative real-time RT-PCR of retina and choroid, laser CNV model; type: in vivo, C57BL/6 mice; conditions: mouse, 14 days after laser; 5 μg; laser-treated group increased about 55 times
Protocol: In order to confirm the inhibitory effect of hydroxy proline-GQDGLAGPK on neovascularization-related gene expression, RNA was extracted using RNeasy Mini kit (Qiagen) in mixture of retina and choroid of extracted mice eyeballs, and cDNA was synthesized by using oligo(dT) primer and reverse transcriptase. PCR products were amplified using the specific primer set (COSMOGENETECH, Korea) shown in Table 1 and SYBR Green PCR 2X PreMix (Enzynomics) and for the PCR conditions, the samples were incubated at 95° C. for 10 minutes, and 40 PCR cycles at 95° C. for 15 seconds, 60° C. for 30 seconds and 72° C. for 15 seconds, were performed. Relative quantification was calculated using 2-(DDCT) method [Livak and Schmittgen, 2001; DDCT=(CT, target-CT, actin) control group (CT, target-CT, actin) control group].
After 14 days of laser irradiation in mouse, RNA was extracted from retina and choroid to analyze the gene expression by real-time RT-PCR.

Row | Compound | degree of curvature (irregularity score) of the corneal surface (corneal surface) [points] | corneal epithelial cell detachment (corneal epithelial cell) | tear amount [1] [µL] | inhibition of tube formation (angiogenesis) [2] | conjunctival goblet cells [3] | CNV lesions [4] | VEGF gene expression in retina and choroid (VEGF, ICAM and MCP-1)
1 | collagen [reference compound] | 3.67±1.16 | 0.86±0.29 /0.1 mm^2 | 0.13 ± 0.02 | significant inhibition of angiogenesis | 11.05±0.33 /0.1 mm^2 | reduced; also recorded: decreased | –
2 | GDRGD [CPI] | – | – | – | significant inhibition of angiogenesis | – | reduced; also recorded: decreased | –
3 | Avastin: a remedy of an age-related macular degeneration; positive control [reference compound] | – | – | – | – | – | – | decreased to the level similar to that of the laser-untreated group
4 | O=c1ccn([C@@H]2O[C@H](COP(=O)([O-])OP(=O)([O-])OP(=O)([O-])OP(=O)([O-])OC[C@H]3O[C@@H](n4ccc(=O)[nH]c4=O)[C@H](O)[C@@H]3O)[C@@H](O)[C@H]2O)c(=O)[nH]1.[Na+].[Na+].[Na+].[Na+] [DQS, reference compound] | 3.0±1.0 | 0.095±0.17 /0.1 mm^2 | 0.16 ± 0.02 | – | 8.86±0.29 /0.1 mm^2 | – | –
